# According to paper PMC8995209 (Cell, 2022):
# Target: iaaH (Agrobacterium tumefaciens, UniProt P0A2X2)
# Format: cell-based
# Settings: hydrolysis to NAA; 48 h conditioning
# iaaH, sequence (P0A2X2 whole entry): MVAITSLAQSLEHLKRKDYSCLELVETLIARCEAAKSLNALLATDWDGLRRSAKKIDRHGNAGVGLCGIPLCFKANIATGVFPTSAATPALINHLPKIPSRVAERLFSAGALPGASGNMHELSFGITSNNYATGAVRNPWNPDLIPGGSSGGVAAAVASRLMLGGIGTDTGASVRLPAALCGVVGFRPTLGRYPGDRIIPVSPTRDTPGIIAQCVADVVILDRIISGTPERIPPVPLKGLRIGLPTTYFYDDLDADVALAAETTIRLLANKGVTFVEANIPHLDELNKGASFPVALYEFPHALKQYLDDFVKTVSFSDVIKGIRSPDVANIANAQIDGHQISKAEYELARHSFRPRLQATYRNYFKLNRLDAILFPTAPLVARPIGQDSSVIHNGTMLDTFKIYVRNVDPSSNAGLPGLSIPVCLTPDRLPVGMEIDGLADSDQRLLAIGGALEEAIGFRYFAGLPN
structure (smiles),measurement,value
"NC(=O)Cc1cccc2ccccc12 [NAM, 1-naphthaleneacetamide]","conditioned medium of iaaH-expressing CHO-K1 cells, auxin read out by Receiver c",also able to produce the auxin NAA
